Columns and labels:
[1] = system: rice; assay: Rice leaf bending assay (leaf inclination angle); format: in vivo; settings: for Average angle / Total angle: 48 hr; for Total angle: sum of 20 rice
Source text: According to a rice leaf bending assay, we measured leaf inclination angle of rice to determine effects of the natural brassinolide analogues on the enhancement of plant development. The larger the leaf inclination angle of rice, the more effects on plant development. The detailed assay procedure is as follows:
The natural brassinolide analogues, BR1, BR2, BR3, BR4, BR5 and BR6, used herein, were those prepared by the method of Example 1. And BR1, BR2, BR3, BR4, BR5 and BR6 were mixed into a mixture of brassinolide analogues (referred to as “BRs”, in which the weight ratio of BR1:BR2:BR3:BR4:BR5:BR6 is 0.4:0.4:0.4:0.4:0.4:98). Respectively the analogues and the mixture were dissolved into 95% (V/V) ethanol solution, and then diluted with pure water to 1 mg/L, 0.1 mg/L, 0.01 mg/L, 0.001 mg/L and 0.0001 mg/L. In addition, pure water was used as a control.
After rice seeds were disinfected by using 5% sodium hypochlorite solution treatment, they were rinsed with distilled water until their pH>7, placed into a petri dish in a dark incubator, and cultured by using water at 30° C.±2° C. for 9 days. Then the nine-day-old etiolated seedlings of rice were cut around the center of the base of second leaf to segments with 1 cm leaf and 1 cm leaf sheath. The leaf segments were floated in distilled water, placed in a dark incubator, cultured at 30° C.±2° C. for 24 hr, and then dried by a filter paper. The dried leaf segments were respectively immersed in the above solutions containing different concentrations of the natural brassinolide analogues or pure water, and cultured in a dark incubator at 30° C.±2° C. for 48 hr. Every solution or pure water contained the leaf segments from 20 rice. Then the inclination angle between the second leaf and the leaf sheath of the leaf segments was measured by a protractor.

[2] = system: rice seed; assay: Salt tolerance assay: germination of rice seed under high salt environment; format: in vivo
Source text: According to a salt tolerance assay, we measured germination of rice seed under high salt environment to determine effects of the natural brassinolide analogues on the salt tolerance of a plant.
The natural brassinolide analogues, BR1, BR2, BR3, BR4, BR5 and BR6, used herein, were those prepared by the method of Example 1. And BR1, BR2, BR3, BR4, BR5 and BR6 were mixed into a mixture of brassinolide analogues (referred to as “BRs”, in which the weight ratio of BR1:BR2:BR3:BR4:BR5:BR6 is 0.4:0.4:0.4:0.4:0.4:98). Respectively the analogues and the mixture were dissolved into 95% (V/V) ethanol solution, and then diluted with pure water to 1 mg/L, 0.1 mg/L, 0.01 mg/L, 0.001 mg/L and 0.0001 mg/L. In addition, pure water was used as a control. Furthermore, NaCl was added to the above solutions containing different concentrations of the natural brassinolide analogues or pure water respectively, and the concentrations of the salt are 300, 400, 500 and 600 mg/L respectively.
After rice seeds were disinfected by using 5% sodium hypochlorite solution treatment, they were rinsed with distilled water until their pH>7, placed into a petri dish in a dark incubator, and cultured at 30° C.±2° C. by using the above solutions containing different concentrations of the natural brassinolide analogues or pure water for observing the germination and calculating germination rates. The results are shown in tables 4-0˜4-4, which indicate that relative to the control, each of the natural brassinolide analogues and the mixture were capable of increasing germination rates of rice under high salt environment so as to enhance the salt tolerance of a plant; and substantially the enhancement of the germination rates was positively correlated to the concentrations of the natural brassinolide analogues and the mixture.

[3] = sample 0.0001 mg/l, salt 300 mg/l
[4] = sample 0.0001 mg/l, salt 400 mg/l
[5] = sample 0.0001 mg/l, salt 500 mg/l
[6] = sample 0.0001 mg/l, salt 600 mg/l
[7] = sample 0.001 mg/l, salt 300 mg/l
[8] = sample 0.001 mg/l, salt 400 mg/l
[9] = sample 0.001 mg/l, salt 500 mg/l
[10] = sample 0.001 mg/l, salt 600 mg/l
[11] = sample 0.01 mg/l, salt 300 mg/l
[12] = sample 0.01 mg/l, salt 400 mg/l
[13] = sample 0.01 mg/l, salt 500 mg/l
[14] = sample 0.01 mg/l, salt 600 mg/l

Row | Structure (SMILES) | Average angle ([1]; 0.0001 mg/l) | Total angle ([1]; 0.0001 mg/l) | Average angle ([1]; 0.001 mg/l) | Total angle ([1]; 0.001 mg/l) | Average angle ([1]; 0.01 mg/l) | Total angle ([1]; 0.01 mg/l) | Average angle ([1]; 0.1 mg/l) | Total angle ([1]; 0.1 mg/l) | Average angle ([1]; 1 mg/l) | Total angle ([1]; 1 mg/l) | Germination rate [2, 3] | Germination rate [2, 4] | Germination rate [2, 5] | Germination rate [2, 6] | Germination rate [2, 7] | Germination rate [2, 8] | Germination rate [2, 9] | Germination rate [2, 10] | Germination rate [2, 11] | Germination rate [2, 12] | also measured
1 | CC(C)[C@H](C)[C@@H](O)[C@H](O)[C@@H](C)[C@H]1CCC2C3COC(=O)C4C[C@H](O)[C@H](O)C[C@]4(C)C3CC[C@@]21C (stereo partly shown) [BR1] | 5.34 degree | 106.8 degree | 11.27 degree | 225.4 degree | 21.05 degree | 421 degree | 36.25 degree | 725 degree | 110.75 degree | 2215 degree | 51% | 48% | 42% | 36% | 53% | 49% | 45% | 37% | 55% | 52% | Effects on leaf inclination compared among analogues ([1]; in the case of high concentrations): more than those of BR2, BR3 and BR4; Germination rate [2, 13]: 47%; Germination rate [2, 14]: 39%; Germination rate ([2]; sample 0.1 mg/l, salt 300 mg/l): 58%; Germination rate ([2]; sample 0.1 mg/l, salt 400 mg/l): 52%; Germination rate ([2]; sample 0.1 mg/l, salt 500 mg/l): 49%; Germination rate ([2]; sample 0.1 mg/l, salt 600 mg/l): 40%; Germination rate ([2]; sample 1 mg/l, salt 300 mg/l): 62%; Germination rate ([2]; sample 1 mg/l, salt 400 mg/l): 55%; Germination rate ([2]; sample 1 mg/l, salt 500 mg/l): 50%; Germination rate ([2]; sample 1 mg/l, salt 600 mg/l): 42%
2 | CC[C@@H](C(C)C)[C@@H](O)[C@H](O)[C@@H](C)[C@H]1CCC2C3COC(=O)C4C[C@H](O)[C@H](O)C[C@]4(C)C3CC[C@@]21C (stereo partly shown) [BR2] | 4.025 degree | 80.5 degree | 7.28 degree | 145.6 degree | 13.25 degree | 265 degree | 21.15 degree | 423 degree | 71.25 degree | 1425 degree | 45% | 41% | 39% | 36% | 50% | 42% | 40% | 36% | 50% | 51% | Germination rate [2, 13]: 47%; Germination rate [2, 14]: 39%; Germination rate ([2]; sample 0.1 mg/l, salt 300 mg/l): 50%; Germination rate ([2]; sample 0.1 mg/l, salt 400 mg/l): 50%; Germination rate ([2]; sample 0.1 mg/l, salt 500 mg/l): 46%; Germination rate ([2]; sample 0.1 mg/l, salt 600 mg/l): 38%; Germination rate ([2]; sample 1 mg/l, salt 300 mg/l): 58%; Germination rate ([2]; sample 1 mg/l, salt 400 mg/l): 51%; Germination rate ([2]; sample 1 mg/l, salt 500 mg/l): 46%; Germination rate ([2]; sample 1 mg/l, salt 600 mg/l): 38%
